Laboratory results published in patent publication US20250101041A1, “POSITIVE ALLOSTERIC MODULATORS OF THE MUSCARINIC ACETYLCHOLINE RECEPTOR M4” (Vanderbilt University, priority 2022, published 2025).

Biological target: T1, human mAChR M4 (Homo sapiens, UniProt P08173)
T1 construct: expressed in transfected cells; host or cells: CHO-K1 (American Type Culture Collection), stably expressing hM4 and Gqi5
T1 sequence (P08173 1-479): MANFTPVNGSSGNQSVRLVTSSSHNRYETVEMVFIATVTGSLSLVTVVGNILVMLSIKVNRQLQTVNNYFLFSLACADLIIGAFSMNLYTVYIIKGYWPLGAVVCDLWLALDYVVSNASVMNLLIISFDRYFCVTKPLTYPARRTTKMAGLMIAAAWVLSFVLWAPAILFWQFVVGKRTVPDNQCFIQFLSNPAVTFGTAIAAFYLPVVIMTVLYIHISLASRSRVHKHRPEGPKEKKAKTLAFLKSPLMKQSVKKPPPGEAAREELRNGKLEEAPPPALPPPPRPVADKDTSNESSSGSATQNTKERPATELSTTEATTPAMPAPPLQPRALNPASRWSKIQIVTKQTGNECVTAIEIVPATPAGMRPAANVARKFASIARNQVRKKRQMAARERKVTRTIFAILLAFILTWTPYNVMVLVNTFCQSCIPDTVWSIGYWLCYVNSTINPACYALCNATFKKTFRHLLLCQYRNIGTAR
Experiment: mAChR M4 cell-based functional assay: calcium mobilization (Fluo-4, FDSS), potentiation of EC20 acetylcholine response in hM4-Gqi5 CHO-K1 cells
Settings: human M4; for Emax at 30 µM: CHO-K1, % ACh maximum at 30 μM; for EC50: potentiation of EC20 acetylcholine response, calcium mobilization
In short: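 CHO-K1 cells stably co-expressing human M4 and chimeric Gqi5, loaded with Fluo-4 AM (50 min, 37 °C). Compounds in 11-point 1:3 series added first; EC20 acetylcholine added at 144 s and again at 230 s. Calcium read on FDSS at 1 Hz; EC50 and Emax from four-parameter logistic fit of potentiated EC20 response.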

| Compound | Emax at 30 µM [%] | EC50 [nM] |
| --- | --- | --- |
| Cc1cc(=O)n2nc(N3CCc4ncc(Oc5ccccc5F)cc4C3)c(C)cc2n1 [Compound 3-2, 7-(3-(2-fluorophenoxy)-7,8-dihydro-1,6-naphthyridin-6(5H)-yl)-2,8-dimethyl-4H-pyrimido[1,2-b]pyridazin-4-one] | 80 | 55 |
| Cc1c(N2CCc3ncc(-c4cncc(C(F)(F)F)c4)cc3C2)nn2c(=O)cc(C(F)F)nc2c1C [Compound 1-154, 2-(difluoromethyl)-8,9-dimethyl-7-(3-(5-(trifluoromethyl)pyridin-3-yl)-7,8-dihydro-1,6-naphthyridin-6(5H)-yl)-4H-pyrimido[1,2-b]pyridazin-4-one] | 80 | 401 |
| COCc1cc(=O)n2nc(N3CCc4ncc(-c5ccc(C)nc5)cc4C3)c(C)c(C)c2n1 [Compound 1-110, 2-(methoxymethyl)-8,9-dimethyl-7-(3-(6-methylpyridin-3-yl)-7,8-dihydro-1,6-naphthyridin-6(5H)-yl)-4H-pyrimido[1,2-b]pyridazin-4-one] | 95 | 177 |
| Cc1c(N2CCc3ncc(C4CCCCC4)cc3C2)nn2c(=O)ccnc2c1C [Compound 1-430, 7-(3-cyclohexyl-7,8-dihydro-1,6-naphthyridin-6(5H)-yl)-8,9-dimethyl-4H-pyrimido[1,2-b] pyridazin-4-one] | 75 | 95 |
| Cc1cc(F)c(F)c(-c2cnc3c(c2)CN(c2nn4c(=O)cc(C)nc4c(C)c2C)CC3)c1 [Compound 1-272, 7-(3-(2,3-difluoro-5-methylphenyl)-7,8-dihydro-1,6-naphthyridin-6(5H)-yl)-2,8,9-trimethyl-4H-pyrimido[1,2-b]pyridazin-4-one] | 82 | 810 |
| Cc1cc2nc(C(F)F)cc(=O)n2nc1N1CCc2ncc(C(F)(F)F)cc2C1 [Compound 1-26, 2-(difluoromethyl)-8-methyl-7-(3-(trifluoromethyl)-7,8-dihydro-1,6-naphthyridin-6(5H)-yl)-4H-pyrimido[1,2-b]pyridazin-4-one] | 74 | 141 |
| Cc1cc2nccc(=O)n2nc1N1CCc2ncc(N3CCOC(c4ccccc4)C3)cc2C1 (stereo in doubt) [Compound 2-96, (R)-8-methyl-7-(3-(2-phenylmorpholino)-7,8-dihydro-1,6-naphthyridin-6(5H)-yl)-4H-pyrimido[1,2-b]pyridazin-4-one] | 42 | 1430 |
| Cc1c(N2CCc3ncc(-c4ccc(F)cc4F)cc3C2)nn2c(=O)ccnc2c1C [Compound 1-347, 7-(3-(2,4-difluorophenyl)-7,8-dihydro-1,6-naphthyridin-6(5H)-yl)-8,9-dimethyl-4H-pyrimido[1,2-b]pyridazin-4-one] | 80 | 217 |
| Cc1cc(=O)n2nc(N3CCc4ncc(-c5cnccc5Cl)cc4C3)c(C)c(C)c2n1 [Compound 1-126, 7-(3-(4-chloropyridin-3-yl)-7,8-dihydro-1,6-naphthyridin-6(5H)-yl)-2,8,9-trimethyl-4H-pyrimido[1,2-b]pyridazin-4-one] | 88 | 758 |
| Cc1ccc(-c2cnc3c(c2)CN(c2nn4c(=O)ccnc4c(C4CC4)c2C)CC3)cn1 [Compound 1-114, 9-cyclopropyl-8-methyl-7-(3-(6-methylpyridin-3-yl)-7,8-dihydro-1,6-naphthyridin-6(5H)-yl)-4H-pyrimido[1,2-b]pyridazin-4-one] | 73 | 615 |
| COCc1cc(=O)n2nc(N3CCc4ncc(-c5cnc(OC)cc5C)cc4C3)c(C)c(C)c2n1 [Compound 1-262, 7-(3-(6-methoxy-4-methylpyridin-3-yl)-7,8-dihydro-1,6-naphthyridin-6(5H)-yl)-2-(methoxymethyl)-8,9-dimethyl-4H-pyrimido[1,2-b]pyridazin-4-one] | 99 | 1750 |
| COCc1cc(=O)n2nc(N3CCc4ncc(-c5cnccc5C)cc4C3)c(C)c(C)c2n1 [Compound 1-228, 2-(methoxymethyl)-8,9-dimethyl-7-(3-(4-methylpyridin-3-yl)-7,8-dihydro-1,6-naphthyridin-6(5H)-yl)-4H-pyrimido[1,2-b] pyridazin-4-one] | 85 | 34 |
| COCc1c(N2CCc3ncc(-c4ccc(C)nc4)cc3C2)nn2c(=O)ccnc2c1C [Compound 1-271, 8-(methoxymethyl)-9-methyl-7-(3-(6-methylpyridin-3-yl)-7,8-dihydro-1,6-naphthyridin-6(5H)-yl)-4H-pyrimido[1,2-b] pyridazin-4-one] | 87 | 70 |
| Cc1cc2nccc(=O)n2nc1N1CCc2ncc(N3CCCn4nccc43)cc2C1 [Compound 2-1, 7-(3-(6,7-dihydropyrazolo[1,5-a]pyrimidin-4(5H)-yl)-7,8-dihydro-1,6-naphthyridin-6(5H)-yl)-8-methyl-4H-pyrimido[1,2-b]pyridazin-4-one] | 97 | 21 |
| Cc1cc2nccc(=O)n2nc1N1CCc2ncc(-c3ccccc3C3CC3)cc2C1 [Compound 1-440, 7-(3-(2-cyclopropylphenyl)-7,8-dihydro-1,6-naphthyridin-6(5H)-yl)-8-methyl-4H-pyrimido [1,2-b]pyridazin-4-one] | 56 | 380 |
| Cc1cc2nccc(=O)n2nc1N1CCc2ncc(N3CC(C)Oc4ccccc43)cc2C1 (stereo not shown) [Compound 2-57, 8-methyl-7-(3-(2-methyl-2,3-dihydro-4H-benzo[b][1,4]oxazin-4-yl)-7,8-dihydro-1,6-naphthyridin-6(5H)-yl)-4H-pyrimido[1,2-b]pyridazin-4-one] | 93 | 20 |
| Cc1cc2nccc(=O)n2nc1N1CCc2ncc(-c3cccnc3C(F)F)cc2C1 [Compound 1-425, 7-(3-(2-(difluoromethyl)pyridin-3-yl)-7,8-dihydro-1,6-naphthyridin-6(5H)-yl)-8-methyl-4H-pyrimido[1,2-b]pyridazin-4-one] | 79 | 836 |
| Cc1cc(=O)n2nc(N3CCc4ncc(-c5cncc(C(F)(F)F)c5)cc4C3)c(C)c(C)c2n1 [Compound 1-124, 2,8,9-trimethyl-7-(3-(5-(trifluoromethyl)pyridin-3-yl)-7,8-dihydro-1,6-naphthyridin-6(5H)-yl)-4H-pyrimido[1,2-b]pyridazin-4-one] | 84 | 3410 |
| COc1ccccc1-c1cnc2c(c1)CN(c1nn3c(=O)cc(C)nc3cc1C)CC2 [Compound 1-233, 7-(3-(2-methoxyphenyl)-7,8-dihydro-1,6-naphthyridin-6(5H)-yl)-2,8-dimethyl-4H-pyrimido[1,2-b]pyridazin-4-one] | 65 | 735 |
| Cc1cc2nccc(=O)n2nc1N1CCc2ncc(-c3cccnc3)cc2C1 [Compound 1-68, 8-methyl-7-(3-(pyridin-3-yl)-7,8-dihydro-1,6-naphthyridin-6(5H)-yl)-4H-pyrimido[1,2-b]pyridazin-4-one] | 84 | 358 |
| Cc1ccc(-c2cnc3c(c2)CN(c2nn4c(=O)cc(C(F)(F)F)nc4cc2C)CC3)cn1 [Compound 1-80, 8-methyl-7-(3-(6-methylpyridin-3-yl)-7,8-dihydro-1,6-naphthyridin-6(5H)-yl)-2-(trifluoromethyl)-4H-pyrimido[1,2-b]pyridazin-4-one] | 104 | 64 |
| COc1cncc(-c2cnc3c(c2)CN(c2nn4c(=O)cc(C)nc4c(C)c2C)CC3)c1 [Compound 1-199, 7-(3-(5-methoxypyridin-3-yl)-7,8-dihydro-1,6-naphthyridin-6(5H)-yl)-2,8,9-trimethyl-4H-pyrimido[1,2-b]pyridazin-4-one] | 74 | 526 |
| Cc1cc(C#N)ncc1-c1cnc2c(c1)CN(c1nn3c(=O)ccnc3cc1C)CC2 [Compound 1-355, 4-methyl-5-(6-(8-methyl-4-oxo-4H-pyrimido[1,2-b]pyridazin-7-yl)-5,6,7,8-tetrahydro-1,6-naphthyridin-3-yl)picolinonitrile] | 78 | 1520 |
| Cc1cc(=O)n2nc(N3CCc4ncc(-c5cncnc5)cc4C3)c(C)c(C)c2n1 [Compound 1-118, 2,8,9-trimethyl-7-(3-(pyrimidin-5-yl)-7,8-dihydro-1,6-naphthyridin-6(5H)-yl)-4H-pyrimido[1,2-b]pyridazin-4-one] | 83 | 6070 |
| Cc1cc(=O)n2nc(N3CCc4ncc(-c5cnn(-c6ccccc6F)c5)cc4C3)c(C)c(C)c2n1 [Compound 1-180, 7-(3-(1-(2-fluorophenyl)-1H-pyrazol-4-yl)-7,8-dihydro-1,6-naphthyridin-6(5H)-yl)-2,8,9-trimethyl-4H-pyrimido[1,2-b]pyridazin-4-one] | 63 | 2470 |
| Cc1cc2nccc(=O)n2nc1N1CCc2ncc(-c3ccc(F)nc3F)cc2C1 [Compound 1-318, 7-(3-(2,6-difluoropyridin-3-yl)-7,8-dihydro-1,6-naphthyridin-6(5H)-yl)-8-methyl-4H-pyrimido [1,2-b]pyridazin-4-one] | 55 | 2400 |
